Measured values from US8063053B2, “1-(arylsulfonyl)-4-(piperazin-1-yl)-1H-benzimidazoles as 5-hydroxytryptamine-6 ligands” (Wyeth LLC, priority 2008, dated 2011).

Molecular target: T1, serotonin 5-HT6 receptor subtype (Homo sapiens, UniProt P50406)
T1 construct: host or cells: CHO-Dukx-A2 cells, clone 50-7
Test: 5-HT6 binding affinity ([3H]-LSD SPA binding)
Conditions: read-out: 5-HT6 binding Ki

T1 sequence (P50406 whole entry): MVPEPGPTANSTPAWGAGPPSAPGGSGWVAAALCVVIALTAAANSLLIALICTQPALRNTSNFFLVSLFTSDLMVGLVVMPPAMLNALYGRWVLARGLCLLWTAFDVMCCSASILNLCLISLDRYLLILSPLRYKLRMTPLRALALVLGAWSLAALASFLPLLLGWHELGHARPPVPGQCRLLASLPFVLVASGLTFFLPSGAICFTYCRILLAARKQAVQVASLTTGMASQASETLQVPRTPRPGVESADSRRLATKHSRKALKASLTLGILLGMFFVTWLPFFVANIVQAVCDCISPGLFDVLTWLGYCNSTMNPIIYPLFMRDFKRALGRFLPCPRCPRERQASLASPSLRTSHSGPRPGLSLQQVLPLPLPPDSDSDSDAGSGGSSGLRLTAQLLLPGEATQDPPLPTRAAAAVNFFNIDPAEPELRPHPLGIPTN

Row | Compound | Ki [nM]
1 | COc1ccccc1S(=O)(=O)n1cnc2c(N3CCNCC3)cccc21 [Example 44, 1-[(2-methoxyphenyl)sulfonyl]-4-piperazin-1-yl-1H-benzimidazole] | 0.156
2 | COc1cccc(S(=O)(=O)n2c(C)nc3c(N4CCNCC4)cccc32)c1 [Example 45, 1-[(3-methoxyphenyl)sulfonyl]-2-methyl-4-piperazin-1-yl-1H-benzimidazole] | 2.07
3 | Cc1nc2c(N3CCNCC3)cccc2n1S(=O)(=O)c1ccccc1OC(F)(F)F [Example 46, 2-methyl-4-piperazin-1-yl-1-{[2-(trifluoromethoxy)phenyl]sulfonyl}-1H-benzimidazole] | 1.74
4 | Cc1ccccc1S(=O)(=O)n1c(C)nc2c(N3CCNCC3)cccc21 [Example 47, 2-methyl-1-[(2-methylphenyl)sulfonyl]-4-piperazin-1-yl-1H-benzimidazole] | 2.26
5 | Cc1nc2c(N3CCNCC3)cccc2n1S(=O)(=O)c1ccccc1C(F)(F)F [Example 48, 2-methyl-4-piperazin-1-yl-1-{[2-(trifluoromethyl)phenyl]sulfonyl}-1H-benzimidazole] | 2.94
6 | Cc1nc2c(N3CCNCC3)cccc2n1S(=O)(=O)c1cccc(C(F)(F)F)c1 [Example 49, 2-methyl-4-piperazin-1-yl-1-{[3-(trifluoromethyl)phenyl]sulfonyl}-1H-benzimidazole] | 0.982
7 | O=S(=O)(c1cccc2c(Cl)cccc12)n1cnc2c(N3CCNCC3)cccc21 [Example 50, 1-[(5-chloro-1-naphthyl)sulfonyl]-4-piperazin-1-yl-1H-benzimidazole] | 1.36
8 | Cc1ccc(S(=O)(=O)n2c(C)nc3c(N4CCNCC4)cccc32)c2ccccc12 [Example 51, 2-methyl-1-[(4-methyl-1-naphthyl)sulfonyl]-4-piperazin-1-yl-1H-benzimidazole] | 6.27
9 | COc1ccccc1S(=O)(=O)n1c(C)nc2c(N3CCNCC3)cccc21 [Example 52, 1-[(2-methoxyphenyl)sulfonyl]-2-methyl-4-piperazin-1-yl-1H-benzimidazole] | 1.89
10 | CC1CN(c2cccc3c2ncn3S(=O)(=O)c2ccccc2Cl)CCN1 (centres unmarked) [Example 53, 1-[(2-chlorophenyl)sulfonyl]-4-(3-methylpiperazin-1-yl)-1H-benzimidazole] | 1.34
11 | CC1CN(c2cccc3c2ncn3S(=O)(=O)c2cccc(Cl)c2)CCN1 (centres unmarked) [Example 54, 1-[(3-chlorophenyl)sulfonyl]-4-(3-methylpiperazin-1-yl)-1H-benzimidazole] | 1.92
12 | Cc1cccc(S(=O)(=O)n2cnc3c(N4CCNC(C)C4)cccc32)c1 (centres unmarked) [Example 55, 1-[(3-methylphenyl)sulfonyl]-4-(3-methylpiperazin-1-yl)-1H-benzimidazole] | 2.47
13 | COc1ccccc1S(=O)(=O)n1cnc2c(N3CCNC(C)C3)cccc21 (centres unmarked) [Example 56, 1-[(2-methoxyphenyl)sulfonyl]-4-(3-methylpiperazin-1-yl)-1H-benzimidazole] | 2.35
14 | CC1CN(c2cccc3c2ncn3S(=O)(=O)c2ccccc2OC(F)(F)F)CCN1 (centres unmarked) [Example 57, 4-(3-methylpiperazin-1-yl)-1-{[2-(trifluoromethoxy)phenyl]sulfonyl}-1H-benzimidazole] | 2.09
15 | Cc1c(Cl)cccc1S(=O)(=O)n1cnc2c(N3CCNC(C)C3)cccc21 (centres unmarked) [Example 58, 1-[(3-chloro-2-methylphenyl)sulfonyl]-4-(3-methylpiperazin-1-yl)-1H-benzimidazole] | 1.73
16 | CC(C)c1nc2c(N3CCNCC3)cccc2n1S(=O)(=O)c1ccccc1Cl [Example 59, 1-[(2-chlorophenyl)sulfonyl]-4-(1-methylethyl)-4-piperazin-1-yl-1H-benzimidazole] | 0.463
17 | CC(C)c1nc2c(N3CCNCC3)cccc2n1S(=O)(=O)c1cccc(Cl)c1 [Example 60] | 1.08
18 | CC(C)c1nc2c(N3CCNCC3)cccc2n1S(=O)(=O)c1cccc2ccccc12 [Example 61, 2-(1-methylethyl)-1-(naphthalen-1-ylsulfonyl)-4-piperazin-1-yl-1H-benzimidazole] | 0.6
19 | CC(C)c1nc2c(N3CCNCC3)cccc2n1S(=O)(=O)c1cccc2c(Cl)cccc12 [Example 62, 1-[(5-chloronaphthalen-1-yl)sulfonyl]-2-(1-methylethyl)-4-piperazin-1-yl-1H-benzimidazole] | 1.47
20 | CC(C)c1nc2c(N3CCNCC3)cccc2n1S(=O)(=O)c1ccccc1OC(F)(F)F [Example 63, 2-(1-methylethyl)-4-piperazin-1-yl-1-{[2-(trifluoromethoxy)phenyl]sulfonyl}-1H-benzimidazole] | 1.14
21 | Cc1ccc(S(=O)(=O)n2c(C(C)C)nc3c(N4CCNCC4)cccc32)c2ccccc12 [Example 64, 2-(1-methylethyl)-1-[(4-methylnaphthalen-1-yl)sulfonyl]-4-piperazin-1-yl-1H-benzimidazole] | 1.6
22 | COc1ccc(Cl)cc1S(=O)(=O)n1cnc2c(N3CCNCC3)cccc21 [Example 65, 1-[(5-chloro-2-methoxyphenyl)sulfonyl]-4-piperazin-1-yl-1H-benzimidazole] | 3.56

Row | Compound | Ki [nM]
23 | COc1ccc(Br)cc1S(=O)(=O)n1cnc2c(N3CCNCC3)cccc21 [Example 66, 1-[(5-bromo-2-methoxyphenyl)sulfonyl]-4-piperazin-1-yl-1H-benzimidazole] | 4.93
24 | COc1ccc(OC)c(S(=O)(=O)n2cnc3c(N4CCNCC4)cccc32)c1 [Example 67, 1-[(2,5-dimethoxyphenyl)sulfonyl]-4-piperazin-1-yl-1H-benzimidazole] | 2.13
25 | COc1ccc(C)cc1S(=O)(=O)n1cnc2c(N3CCNCC3)cccc21 [Example 68, 1-[(2-methoxy-5-methylphenyl)sulfonyl]-4-piperazin-1-yl-1H-benzimidazole] | 0.498
26 | COc1cc(C)ccc1S(=O)(=O)n1cnc2c(N3CCNCC3)cccc21 [Example 69, 1-[(2-methoxy-4-methylphenyl)sulfonyl]-4-piperazin-1-yl-1H-benzimidazole] | 2.15
27 | Cc1cccc(Cl)c1S(=O)(=O)n1cnc2c(N3CCNCC3)cccc21 [Example 70, 1-[(2-chloro-6-methylphenyl)sulfonyl]-4-piperazin-1-yl-1H-benzimidazole] | 2.33
28 | O=S(=O)(c1cc(C(F)(F)F)ccc1Cl)n1cnc2c(N3CCNCC3)cccc21 [Example 71, 1-{[2-chloro-5-(trifluoromethyl)phenyl]sulfonyl}-4-piperazin-1-yl-1H-benzimidazole] | 13.7
29 | Cc1ccc(F)c(S(=O)(=O)n2cnc3c(N4CCNCC4)cccc32)c1 [Example 72, 1-[(2-fluoro-5-methylphenyl)sulfonyl]-4-piperazin-1-yl-1H-benzimidazole] | 0.254
30 | Cc1cccc(S(=O)(=O)n2cnc3c(N4CCNCC4)cccc32)c1F [Example 73, 1-[(2-fluoro-3-methylphenyl)sulfonyl]-4-piperazin-1-yl-1H-benzimidazole] | 0.202
31 | COc1c(F)cccc1S(=O)(=O)n1cnc2c(N3CCNCC3)cccc21 [Example 74, 1-[(3-fluoro-2-methoxyphenyl)sulfonyl]-4-piperazin-1-yl-1H-benzimidazole] | 0.485
32 | C[C@@H]1CN(c2cccc3c2ncn3S(=O)(=O)c2ccccc2Cl)CCN1 [Example 75, 1-[(2-chlorophenyl)sulfonyl]-4-[(3R)-3-methylpiperazin-1-yl]-1H-benzimidazole] | 1.19
33 | C[C@@H]1CN(c2cccc3c2ncn3S(=O)(=O)c2cccc(Cl)c2)CCN1 [Example 76, 1-[(3-chlorophenyl)sulfonyl]-4-[(3R)-3-methylpiperazin-1-yl]-1H-benzimidazole] | 2.35
34 | Cc1c(Cl)cccc1S(=O)(=O)n1cnc2c(N3CCN[C@H](C)C3)cccc21 [Example 77, 1-[(3-chloro-2-methylphenyl)sulfonyl]-4-[(3R)-3-methylpiperazin-1-yl]-1H-benzimidazole] | 1.2
35 | C[C@@H]1CN(c2cccc3c2ncn3S(=O)(=O)c2cccc3ccccc23)CCN1 [Example 78, 4-[(3R)-3-methylpiperazin-1-yl]-1-(naphthalen-1-ylsulfonyl)-1H-benzimidazole] | 1.28
36 | C[C@H]1CN(c2cccc3c2ncn3S(=O)(=O)c2ccccc2Cl)CCN1 [Example 79, 1-[(2-chlorophenyl)sulfonyl]-4-[(3S)-3-methylpiperazin-1-yl]-1H-benzimidazole] | 0.282
37 | C[C@H]1CN(c2cccc3c2ncn3S(=O)(=O)c2cccc(Cl)c2)CCN1 [Example 80, 1-[(3-chlorophenyl)sulfonyl]-4-[(3S)-3-methylpiperazin-1-yl]-1H-benzimidazole] | 0.483
38 | C[C@H]1CN(c2cccc3c2ncn3S(=O)(=O)c2cccc3ccccc23)CCN1 [Example 81, 4-[(3S)-3-methylpiperazin-1-yl]-1-(naphthalen-1-ylsulfonyl)-1H-benzimidazole] | 0.354
39 | Cc1c(Cl)cccc1S(=O)(=O)n1cnc2c(N3CCN[C@@H](C)C3)cccc21 [Example 82, 1-[(3-chloro-2-methylphenyl)sulfonyl]-4-[(3S)-3-methylpiperazin-1-yl]-1H-benzimidazole] | 0.21
40 | O=S(=O)(c1cccc(F)c1F)n1cnc2c(N3CCNCC3)cccc21 [Example 83, 1-[(2,3-difluorophenyl)sulfonyl]-4-piperazin-1-yl-1H-benzimidazole] | 0.397
41 | O=S(=O)(c1cc(F)ccc1F)n1cnc2c(N3CCNCC3)cccc21 [Example 84, 1-[(2,5-difluorophenyl)sulfonyl]-4-piperazin-1-yl-1H-benzimidazole] | 0.855
42 | O=S(=O)(c1c(Cl)cccc1Cl)n1cnc2c(N3CCNCC3)cccc21 [Example 86, 1-[(2,6-dichlorophenyl)sulfonyl]-4-piperazin-1-yl-1H-benzimidazole] | 1.33
43 | Cc1c(F)cccc1S(=O)(=O)n1cnc2c(N3CCNCC3)cccc21 [Example 87, 1-[(3-fluoro-2-methylphenyl)sulfonyl]-4-piperazin-1-yl-1H-benzimidazole] | 0.402
44 | O=S(=O)(c1cc(F)cc(Cl)c1)n1cnc2c(N3CCNCC3)cccc21 [Example 88, 1-[(3-chloro-5-fluorophenyl)sulfonyl]-4-piperazin-1-yl-1H-benzimidazole] | 0.589
